Values of other authors, collected in publication PMC7395068, “The evolution of strategies to minimise the risk of human drug-induced liver injury (DILI) in drug discovery and development” (Archives of Toxicology, 2020).
Where two headings read alike, the source gives them in different places. *1 amine or outer side, *2 acyl side, *3 side chain or, on linkers, in order; H or OH if unused. Where a SMILES comes first, the peptide text is derived from it. Bridges are numbered along the chain shown (N, C = ends). Roman numbers before positions name the chains, in order. [ ]: non-standard residue; d: D form. Actinocin(9to1) = Cc1c2oc3c(C)ccc(C(=O)[*:1])c3nc-2c(C(=O)[*:2])c(N)c1=O; NMeV = CN[C@H](C(=O)O)C(C)C; Sar = CNCC(=O)O

How the values were obtained:
[1] = cited from earlier work
[2] = cited from earlier work; remark: listed apart in the source

Molecule	In vivo DILI ([1]; in vivo)	DILI +VE (5-8), DILI -VE (-4) ([2]; in vivo)	DILI severity category ([2]; in vivo)	In vivo DILI ([1]; […])	DILI +VE (5-8), DILI -VE (-4) ([2]; ref Chen 2016)	DILI severity category ([2]; ref Chen 2016)	other results
C[C@H]1[C@H](NC(=O)/C(=N\OC(C)(C)C(=O)O)c2csc(N)n2)C(=O)N1S(=O)(=O)O [aztreonam]	-VE	-VE	Ambiguous DILI-concern				
Oc1ccc2c(c1)[C@@]13CCCC[C@@]1(O)[C@@H](C2)N(CC1CCC1)CC3 [butorphanol]				-VE	-VE	vNo-DILI-Concern	
CCN1CCN(C(=O)N[C@@H](C(=O)N[C@@H]2C(=O)N3C(C(=O)O)=C(CSc4nnnn4C)CS[C@H]23)c2ccc(O)cc2)C(=O)C1=O [cefoperazone]	-VE	+VE	vLess-DILI-Concern				
CO/N=C(\C(=O)N[C@@H]1C(=O)N2C(C(=O)O)=C(CSc3nc(=O)c(=O)[nH]n3C)CS[C@H]12)c1csc(N)n1 [ceftriaxone]				-VE	+VE	vLess-DILI-Concern	
O=C(N[C@H](CO)[C@H](O)c1ccc([N+](=O)[O-])cc1)C(Cl)Cl [chloramphenicol]	+VE	-VE	vNo-DILI-Concern				
O=C1CCc2cc(OCCCCc3nnnn3C3CCCCC3)ccc2N1 [cilostazol]				-VE	-VE	Ambiguous DILI-concern	
Cc1c2oc3c(C)ccc(C(=O)N[C@@H]4C(=O)N[C@H](C(C)C)C(=O)N5CCC[C@H]5C(=O)N(C)CC(=O)N(C)[C@@H](C(C)C)C(=O)O[C@@H]4C)c3nc-2c(C(=O)N[C@@H]2C(=O)N[C@H](C(C)C)C(=O)N3CCC[C@H]3C(=O)N(C)CC(=O)N(C)[C@@H](C(C)C)C(=O)O[C@@H]2C)c(N)c1=O [dactinomycin] (I: T[dV]P[Sar][NMeV] / II: T[dV]P[Sar][NMeV]; ester I:1-I:C, II:1-II:C; linker I:N-II:N via Actinocin(9to1))	+VE	+VE	vMost-DILI-Concern				
CN(CCOc1ccc(NS(C)(=O)=O)cc1)CCc1ccc(NS(C)(=O)=O)cc1 [dofetilide]	-VE	-VE	vNo-DILI-Concern				
C[C@]12CC[C@@H]3c4ccc(O)cc4CC[C@H]3[C@@H]1CCC2=O [estrone]	+VE	-VE	Ambiguous DILI-concern				
CC(O)(P(=O)(O)O)P(=O)(O)O [etidronic acid]				-VE	-VE	vNo-DILI-Concern	
CC(C)n1c(/C=C/C(O)CC(O)CC(=O)O)c(-c2ccc(F)cc2)c2ccccc21 (stereo not shown) [fluvastatin]					+VE	vLess-DILI-Concern	In vivo DILI ([1]; ref O'Brien 2006): -VE; In vivo DILI ([1]; ref Xu 2008): -VE
Nc1nnc(-c2cccc(Cl)c2Cl)c(N)n1 [lamotrigine]				+VE	+VE	vMost-DILI-Concern	
Cc1cccc(CN2CCN(C(c3ccccc3)c3ccc(Cl)cc3)CC2)c1 (stereo not shown) [meclizine]				-VE	-VE	vNo-DILI-Concern	
CCOC(=O)C1(c2ccccc2)CCN(C)CC1 [meperidine]	-VE	-VE	vNo-DILI-Concern				
Cc1cccc(C)c1NC(=O)C1CCCCN1C (stereo not shown) [mepivacaine]				-VE	-VE	vNo-DILI-Concern	
C[C@@H](O)[C@H]1C(=O)N2C(C(=O)O)=C(S[C@@H]3CN[C@H](C(=O)N(C)C)C3)[C@H](C)[C@H]12 [meropenem]				+VE	+VE	vLess-DILI-Concern	
CN[C@@H](C)Cc1ccccc1 [methamphetamine]				-VE	-VE	vNo-DILI-Concern	
COc1ccccc1OCC(O)COC(N)=O (stereo not shown) [methocarbamol]				-VE	-VE	Ambiguous DILI-concern	
C[C@](N)(Cc1ccc(O)cc1)C(=O)O [metyrosine]				-VE	-VE	vNo-DILI-Concern	
COc1ccc(OC)c(C(O)CNC(=O)CN)c1 (stereo not shown) [midodrine]				-VE	-VE	vNo-DILI-Concern	

Molecule	In vivo DILI ([1]; in vivo)	DILI +VE (5-8), DILI -VE (-4) ([2]; in vivo)	DILI severity category ([2]; in vivo)	In vivo DILI ([1]; […])	DILI +VE (5-8), DILI -VE (-4) ([2]; ref Chen 2016)	DILI severity category ([2]; ref Chen 2016)	other results
NC(=O)C[S+]([O-])C(c1ccccc1)c1ccccc1 (stereo not shown) [modafinil]				-VE	+VE	vLess-DILI-Concern	
CC(C)[C@H]1CC[C@H](C(=O)N[C@H](Cc2ccccc2)C(=O)O)CC1 [nateglinide]				-VE	-VE	Ambiguous DILI-concern	
CC1(C)NC(=O)N(c2ccc([N+](=O)[O-])c(C(F)(F)F)c2)C1=O [nilutamide]				+VE	+VE	vMost-DILI-Concern	
CC1COc2c(N3CCN(C)CC3)c(F)cc3c(=O)c(C(=O)O)cn1c23 (stereo not shown) [ofloxacin]	+VE	+VE	vLess-DILI-Concern				
COc1ccc2[nH]c([S+]([O-])Cc3ncc(C)c(OC)c3C)nc2c1 (stereo not shown) [omeprazole]				-VE	+VE	vLess-DILI-Concern	
CN1CC[C@]23c4c5ccc(O)c4O[C@H]2C(=O)CC[C@@]3(O)[C@H]1C5 [oxymorphone]				-VE	-VE	vNo-DILI-Concern	
CC(=O)O[C@H]1C(=O)[C@@]2(C)[C@H]([C@H](OC(=O)c3ccccc3)[C@]3(O)C[C@H](OC(=O)[C@H](O)[C@@H](NC(=O)c4ccccc4)c4ccccc4)C(C)=C1C3(C)C)[C@]1(OC(C)=O)CO[C@@H]1C[C@@H]2O [paclitaxel]					+VE	vLess-DILI-Concern	In vivo DILI ([1]; ref O'Brien 2006): +VE; In vivo DILI ([1]; ref Persson 2013): +VE
NC1=NC(=O)C(c2ccccc2)O1 (stereo not shown) [pemoline]	+VE	+VE	vMost-DILI-Concern				
C[C@H]1[C@H](c2ccccc2)OCCN1C [phendimetrazine]				-VE	-VE	vNo-DILI-Concern	
CC(C)(N)Cc1ccccc1 [phentermine]				-VE	+VE	vLess-DILI-Concern	
CCN(CC)CCNC(=O)c1ccc(N)cc1 [procainamide]	+VE	+VE	vLess-DILI-Concern				
CNNCc1ccc(C(=O)NC(C)C)cc1 [procarbazine]	+VE	+VE	vLess-DILI-Concern				
O=P(O)(O)C(O)(Cc1cccnc1)P(=O)(O)O [risedronate]				-VE	-VE	Ambiguous DILI-concern	
C#CCN(C)[C@H](C)Cc1ccccc1 [selegiline]	-VE	-VE	vNo-DILI-Concern				
COc1cc2nc(N3CCN(C(=O)C4CCCO4)CC3)nc(N)c2cc1OC (stereo not shown) [terazosin]				-VE	-VE	vNo-DILI-Concern	In vivo DILI ([1]; ref Aleo 2019): -VE
C[C@]12CC[C@H]3[C@@H](CCC4=CC(=O)CC[C@@]43C)[C@@H]1CC[C@@H]2O [testosterone]	-VE	+VE	vMost-DILI-Concern				
Cc1cccc(Nc2ccncc2S(=O)(=O)NC(=O)NC(C)C)c1 [torasemide]				-VE	-VE	Ambiguous DILI-concern	
COc1cc(Cc2cnc(N)nc2N)cc(OC)c1OC [trimethoprim]				-VE	+VE	vLess-DILI-Concern	In vivo DILI ([1]; ref Garside 2014): +VE
capreomycin	-VE	-VE	Ambiguous DILI-concern				
